The subject of assay [1] is wild-type rice plant (Nipponbare). In words: Sensitivity of wild-type rice (Nipponbare) to VLCFAE-inhibiting herbicides, gellan gum medium. The following applies: Oryza sativa, 168 h; for minimal effective concentration: read-out: Minimal inhibitory concentration; for IC50: read-out: I50. Format: in vivo. As to the method:
Whether or not a rice plant comprising the TaQ8GTC0 gene introduced therein has VLCFAE-inhibiting herbicide resistance was determined on the basis of a difference in sensitivity of rice between transformant and wild-type. Accordingly, the sensitivity of the wild-type rice plant (Nipponbare) to VLCFAE-inhibiting herbicides used in the glutathione conjugation activity test was examined as described below.
The growth inhibition test was carried out using a gellan gum medium. Hoagland's mix and 3 g of gellan gum were suspended in 1 liter of distilled water and thoroughly dissolved therein by heating in a microwave. A fraction of the resultant (15 ml) was poured in a tubular bottle before it was cooled. When the herbicide (an acetone solution) was to be incorporated thereinto, the herbicide was simultaneously added at the time of filling of the gellan gum medium into the tubular bottle, followed by thorough mixing (final acetone concentration: 0.1%). Rice hulls were soaked in a 50-fold diluted sodium hypochlorite solution (antiformin) (Wako) for approximately 20 minutes and then thoroughly rinsed with water. Sterilized seeds were soaked in distilled water and allowed to stand at 27° C. for germination (for approximately 2 days). Germinating seeds were transferred with the sprout side up to a gellan gum medium containing herbicide (the tubular bottle). Subsequently, these samples, together with a beaker filled with distilled water, were placed in a transparent case, which was then covered with a clear plastic wrap. These samples were grown at 27° C. under fluorescent light illumination (14 hours of a light period and 10 hours of a dark period) for 1 week, the plants were sampled, and the plant heights were then measured. Inhibition of shoot growth was determined by comparison to control plant grown in the absence of herbicide and the concentration required for 50% inhibition (IC50) was determined by the Probit method.

Assay [2] deals with maize-derived GST (GSTI, ZmM16901) (Zea mays, UniProt P12653). The settings on record: Non-Patent Document 11; cited from earlier work.
The next assay has as its system TaQ8GTC0 protein. In words: Glutathione conjugation activity of the TaQ8GTC0 protein to VLCFAE-inhibiting herbicides (HPLC). It counts as biochemical, wheat (Triticum aestivum). The settings on record: 378 ng TaQ8GTC0 protein, 10 μl of 1 mM herbicide in 200 μl, 30° C., 15 minutes; mean ± standard deviation. As to the method: All the VLCFAE-inhibiting herbicides used in this example were added to the reaction mixture as acetone solutions. Conjugation reactions to the VLCFAE-inhibiting herbicides were performed in a reaction mixture (total amount: 200 μl) containing 50 μl of 100 mM potassium phosphate buffer (pH 6.8), 10 μl of 1 mM VLCFAE-inhibiting herbicide, 20 μl of 10 mM reduced glutathione (pH 7.0), 6 μl of the TaQ8GTC0 protein (378 ng in total, PBS buffer solution) and 114 μl of PBS buffer, the reaction was conducted at 30° C. for 15 minutes, the reaction product was filtered through a […], and 50 μl of the filtered solution was injected into HPLC. HPLC analysis conditions were as described below.
Apparatus: Agilent 1100 series
Column: CAPCELL PAK C18 AQ 4.6 mm (i.d.)×250 mm (SHISEIDO)
Mobile phase: acetonitrile/distilled water=5/95 (hold for 5 min)→(4 min)→40/60 (hold for 4 min)→(4 min)→90/10 (hold for 8 min)→(1 min)→5/95 (hold for 4 min) (each solvent containing 0.5% acetic acid)
When the activity of glutathione conjugation to VLCFAE-inhibiting herbicides was analyzed, the amount of glutathione conjugates (GS conjugates) produced was determined based on the amount of VLCFAE-inhibiting herbicides decreased in the reaction solution.
In Example 1, the conjugation activity to cafenstrole was determined via quantification of the compound released by the glutathione conjugation of this herbicide. In addition, peaks of GS conjugate of other herbicides (i.e., metolachlor, alachlor, flufenacet, mefenacet, phentolazamide, indanofan, anilofos, and piperophos) were unknown. When analyzing the glutathione conjugation activities to these herbicides, accordingly, glutathione conjugation reactions were performed to produce GS conjugate in the modified conditions (i.e., more amount of enzyme was added or the conjugation reaction was conducted for longer time) in the beginning to produce glutathione conjugates (GS conjugates), and the peaks were identified with LC/MS.

In a further assay the test system is ZmGST8 (ZmQ9FQD1). The settings on record: Non-Patent Document 12; cited from earlier work.
For assay [3], the system named is rice plants comprising the TaQ8GTC0 gene introduced therein. In words: Herbicide resistance test of rice plants comprising the TaQ8GTC0 gene, gellan gum medium, plant height. The settings on record: lineage #3-13; minimal concentration (×1), ×4 and ×16 of Table 4. It counts as in vivo. As to the method:
Hoagland's mix and 3 g of gellan gum were suspended in 1 liter of distilled water and thoroughly dissolved therein by heating in a microwave. A fraction of the resultant (15 ml) was injected into a tubular bottle before it was cooled (30 ml was injected into the plate). The herbicide was simultaneously added at the time of injection of the gellan gum medium into the tubular bottle or plate, followed by thorough mixing. Rice hulls were soaked in a 50-fold diluted sodium hypochlorite solution (antiformin) (Wako) for approximately 20 minutes and then thoroughly washed with water. Sterilized seeds were soaked in distilled water and allowed to stand at 27° C. for germination (for approximately 2 days). Germinating seeds were softly planted in the gellan gum medium (plate) containing 0.25 μM BS. These samples, together with a beaker filled with distilled water, were placed in a transparent case, which was then covered with a clear plastic wrap. These samples were grown at 27° C. under fluorescent light illumination (14 hours of a light period and 10 hours of a dark period) for 2 days. Thereafter, rice seeds that were determined to have BS resistance with the use of root elongation as the indicator were transferred to gellan gum media containing pyroxasulfone (tubal bottles) at the final concentrations of 10^−8, 10^−7, 10^−6, and 10^−5M, respectively. Subsequently, these samples, together with a beaker filled with distilled water, were placed in a transparent case, which was then covered with a clear plastic wrap. These samples were grown at 27° C. under fluorescent light illumination (14 hours of a light period and 10 hours of a dark period) for 4 to 5 days, and the plant heights were then measured. Inhibition of shoot growth was determined by comparison to control plants grown in the absence of pyroxasulfone and the concentration for required 50% inhibition (IC50) was determined by the Probit method.
Resistance of rice plants comprising the TaQ8GTC0 gene introduced therein to VLCFAE-inhibiting herbicides was tested in the same manner as with the pyroxasulfone resistance test described above.
FIGS. 7-1 to 7-6 show the results. In FIGS. 7-1 to 7-6, the concentration of 0 μM, the minimal concentration shown in Table 4 (×1), the concentration 4 times higher than the minimal concentration shown in Table 4 (×4), and the concentration 16 times higher than the minimal concentration shown in Table 4 (×16) are shown successively from left to right.

The test system of a further assay is TaQ8GTC1-R protein. In words: Glutathione conjugation activity of the TaQ8GTC1-R protein to CDNB (absorbance at 340 nm). The settings on record: 30° C., pH 7.6, n=2. It counts as biochemical, wheat. As to the method: The glutathione conjugation activity to CDNB was assayed in a reaction mixture (1 ml in total) containing 634 μl of 100 mM potassium phosphate buffer (pH 7.6), 300 μl of 3.3 mM reduced glutathione, 33 μl of a purified enzyme (PBS solution containing 20% glycerol), and 33 μl of 30 mM CDNB (ethanol solution). First, reaction mixture except CDNB was prepared, enzyme reaction was started by the addition of CDNB, and the absorbance at 340 nm was monitored at 30° C. The enzyme activity was calculated using a molar extinction coefficient of glutathione conjugate of CDNB (GS-CDNB) (9.6 mM^−1cm^−1). The amount of GS-CDNB produced in a negative control mixture prepared with the addition of PBS containing 20% glycerol instead of the enzyme (i.e., a non-enzymatic reaction group) was designated as the amount of non-enzymatic production.

The subject of assay [4] is Arabidopsis thaliana plant comprising the TaQ8GTC0 gene introduced therein. Nature of the assay: Sensitivity of Arabidopsis thaliana comprising the TaQ8GTC0 gene to herbicides on MS agar medium. It counts as in vivo. The following applies: KLB-718 1-1-5; concentrations of Table 5; 22° C., 14 days. As to the method: A medium was prepared as described below, so as to examine the pyroxasulfone resistance of the Arabidopsis thaliana plant comprising the TaQ8GTC0 gene introduced therein. At the outset, the Murashige-Skoog (MS) media (1 bag), thiamin hydrochloride (3 mg), nicotinic acid (5 mg), pyridoxin hydrochloride (0.5 mg), and sucrose (10 g) were added into a 1-liter beaker, a pH was adjusted to 5.7, the volume of the content was adjusted to 1 liter, and 8 g (0.8%) of agar was added. The resultant was autoclaved and cooled to room temperature, and pyroxasulfone (an acetone solution) was added thereto. A 30-ml fraction thereof was fractionated into a No. 2 square plate to prepare an MS medium containing pyroxasulfone at a given concentration.
Pyroxasulfone sensitivity of transgenic Arabidopsis thaliana plants was tested with the use of the medium prepared above as described below. A necessary amount of Arabidopsis thaliana dry seeds was agitated in 70% ethanol for 2 minutes and in hypochlorous acid containing 0.02% Triton-X-100 for 15 minutes, followed by washing with sterile water 10 times. Subsequently, the seeds were suspended in 1 ml of the autoclaved 0.1% agar solution, the suspension was thoroughly mixed to prepare a homogeneous solution, and a total of 30 seeds were each placed on the medium surface. The resultant was sealed with a surgical tape, allowed to stand at 4° C. for 2 days, and then transferred to 22° C. for germination.
On the basis of the concentrations above, sensitivity of the Arabidopsis thaliana plant comprising the TaQ8GTC0 gene introduced therein to VLCFAE-inhibiting herbicides was examined. The results are show in FIGS. 13 and 14. The photographs shown in FIGS. 13 and 14 were taken after the plants were grown at 22° C. for 14 days.

The mark [5] stands for this setting: minimal concentration at which growth of wild-type rice is inhibited.
The mark [6] stands for this setting: shoot growth, 1 week, Probit method.

SMILES strings stand for the structures. Like-named read-outs stand apart in the source and are kept apart here.

maize-derived GST (GSTI, ZmM16901), sequence (P12653 whole entry): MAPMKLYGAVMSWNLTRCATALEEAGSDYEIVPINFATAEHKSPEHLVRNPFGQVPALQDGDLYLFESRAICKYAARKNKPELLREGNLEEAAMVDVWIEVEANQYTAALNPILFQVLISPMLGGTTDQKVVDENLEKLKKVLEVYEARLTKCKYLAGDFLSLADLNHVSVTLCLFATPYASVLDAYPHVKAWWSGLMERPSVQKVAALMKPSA

As to `CCc1cccc(CC)c1N(COC)C(=O)CCl` [Alachlor], in assay [1] (setting [5]), the minimal effective concentration was 0.5 µM. In addition, the IC50 in assay [1] (setting [6]) was 332 nM. Moreover, the values for the conjugation activity result (in assay [2]; in the assay on ZmGST8 (ZmQ9FQD1)) were “high-level conjugation activity” and “does not exert conjugation activity”, respectively. Moreover, in the assay on TaQ8GTC0 protein, the “Enzyme activity (glutathione conjugation)” value (shortened to “Enzyme activity”) amounted to 1.5 ± 0.1 μmol/mg protein/15 min. Besides, the “growth of rice plants comprising the TaQ8GTC0 gene on herbicide medium” value (shortened to “growth”) in assay [3] is reported as “not affected at the minimal concentration, but the growth thereof was inhibited at the 4-fold concentration”.
Take `COP(=S)(OC)SCC(=O)N(c1ccc(Cl)cc1)C(C)(C)C` [Anilofos]: in assay [1] (setting [5]), the minimal effective concentration amounted to 0.5 µM. In assay [1] (setting [6]), the IC50 came to 377 nM.
For the molecule `O=[N+]([O-])c1ccc(Cl)c([N+](=O)[O-])c1` [CDNB, 2,4-dinitrochlorobenzene], the “glutathione conjugation activity to CDNB” value in the assay with TaQ8GTC1-R protein stood at 2.17 μmol/min/mg protein.
For `CCN(CC)C(=O)n1cnc(S(=O)(=O)c2c(C)cc(C)cc2C)n1` [Cafenstrole], the minimal effective concentration in assay [1] (setting [5]) was 0.75 µM. The IC50 in assay [1] (setting [6]) amounted to 131 nM. For the same molecule, in the assay on TaQ8GTC0 protein, the “Enzyme activity” value was 0.46 ± 0.1 μmol/mg protein/15 min. Also, in assay [3], the “growth” value is on record as “the growth thereof was inhibited at the minimal concentration”.
Turning to `CCOc1cc(Cl)c(CS(=O)(=O)C2=NOC(C)(C)C2)cc1Cl` [Fenoxasulfone, 3-[(2,5-dichloro-4-ethoxybenzyl)sulfonyl]-4,5-dihydro-5,5-dimethyl-1,2-oxazole], in assay [1] (setting [5]), the minimal effective concentration stood at 0.05 µM. The IC50 in assay [1] (setting [6]) is 54 nM. Further, the “Enzyme activity” value in the assay with TaQ8GTC0 protein stood at 19.5 ± 8.4 μmol/mg protein/15 min. For the same molecule, in assay [4], the “sensitivity of the Arabidopsis thaliana plant comprising the TaQ8GTC0 gene to VLCFAE-inhibiting herbicides” value is listed as “strong resistance”. The “growth” value in assay [3] is given as “the growth thereof was not affected at the maximal test concentration”.
Consider `CCN(C(=O)n1nnn(-c2ccccc2Cl)c1=O)C1CCCCC1` [Fentrazamide], for which the minimal effective concentration in assay [1] (setting [5]) worked out at 0.5 µM. In addition, in assay [1] (setting [6]), the IC50 was found to be 46 nM. Further, the “Enzyme activity” value with TaQ8GTC0 protein amounted to 0.93 ± 0.2 μmol/mg protein/15 min. For the same molecule, the “growth” value in assay [3] is on record as “the growth thereof was inhibited at the minimal concentration”.
As to `CC(C)N(C(=O)COc1nnc(C(F)(F)F)s1)c1ccc(F)cc1` [Flufenacet], the minimal effective concentration in assay [1] (setting [5]) stood at 0.075 µM. In addition, the IC50 in assay [1] (setting [6]) was determined as 42 nM. Besides, in assay [3], the “growth” value was “the growth thereof was inhibited at the minimal concentration”.
With `CCC1(CC2(c3cccc(Cl)c3)CO2)C(=O)c2ccccc2C1=O` (stereo not drawn) [Indanofan], the minimal effective concentration in assay [1] (setting [5]) is 0.25 µM. For the same molecule, in assay [1] (setting [6]), the IC50 was found to be 61 nM. The “growth” value in assay [3] was “the growth thereof was inhibited at the minimal concentration”.
On to `CN(C(=O)COc1nc2ccccc2s1)c1ccccc1` [Mefenacet], for which, in assay [1] (setting [5]), the minimal effective concentration stood at 0.75 µM. Besides, in assay [1] (setting [6]), the IC50 was determined as 388 nM. Besides, the “growth” value in assay [3] is given as “not affected at the minimal concentration, but the growth thereof was inhibited at the 4-fold concentration”.
For `CCc1cccc(C)c1N(C(=O)CCl)C(C)COC` (stereo not drawn) [Metolachlor], in assay [1] (setting [5]), the minimal effective concentration worked out at 0.75 µM. The IC50 in assay [1] (setting [6]) is 636 nM. The conjugation activity entry in assay [2] is on record as “does not exert conjugation activity”. Further, in the assay on TaQ8GTC0 protein, the “Enzyme activity” value is recorded as 2.2 ± 0.8 μmol/mg protein/15 min. For the same molecule, in assay [3], the “growth” value was “not affected at the minimal concentration, but the growth thereof was inhibited at the 4-fold concentration”.
Consider `CCCOP(=S)(OCCC)SCC(=O)N1CCCCC1C` (stereo not drawn) [Piperophos], for which, in assay [1], the IC50 came out at 1310 nM and the minimal effective concentration was 2.5 µM. Further, in assay [3], the “growth” value is listed as “the growth thereof was inhibited at the minimal concentration”.

The record behind these values is patent US11198710B2, “Transgenic plant having herbicide resistance” (priority 2016, dated 2021).
